Laboratory results taken from publication PMC6509125, “The selective disruption of presynaptic JNK2/STX1a interaction reduces NMDA receptor-dependent glutamate release” (Scientific Reports, 2019).

Legend:
Assay type in all cases: cell-based, mouse
[1] = test system: presynaptic NMDA receptors; assay: mEPSC whole cell patch clamp recordings in entorhinal cortex slices; settings: TTX 1 µM, PTX 100 µM, MK-801 10 µM in pipette; n = 8
[2] = test system: p46-JNK; assay: p46-JNK phosphorylation, western blot of cortical synaptosomes; settings: NMDA 100 µM + glycine 1 µM 10 min or KCl 8 mM 90 s (Fig. 1A); n = 6
[3] = test system: STX1a (Ser14 p-STX1a); assay: STX1a Ser14 phosphorylation, western blot of cortical synaptosomes; settings: mean ± s.e.m.; for Ser14 p-STX1a levels vs. control = 1, stimulus alone: NMDA 100 µM + glycine 1 µM 10 min or KCl 8 mM 90 s (Fig. 1B), n = 6
[4] = test system: p54-JNK; assay: p54-JNK phosphorylation, western blot of cortical synaptosomes; settings: mean ± s.e.m.; for p54-JNK phosphorylation vs. control, stimulus alone: NMDA 100 µM + glycine 1 µM 10 min or KCl 8 mM 90 s (Fig. 1A), n = 6
[5] = test system: NMDA-evoked exocytosis, cortical synaptosomes; assay: Synaptic vesicle release, FM1-43 destaining in cortical synaptosomes; settings: NMDA 100 µM + glycine 1 µM, 0 µM JGRi1; mean ± s.e.m., n = 5
[6] = test system: SNARE complex; assay: SNARE complex formation assay in cortical synaptosomes; settings: NMDA 100 µM + glycine 1 µM 10 min alone; mean ± s.e.m., n = 4

Compound	mEPSC amplitude, vehicle vs. D-AP5 [1]	mEPSC inter-event interval (iei), vehicle vs. D-AP5 [1]	p46-JNK phosphorylation, stimulus alone [2]	Ser14 p-STX1a levels vs. control = 1, stimulus alone [3]	p54-JNK phosphorylation vs. control, stimulus alone [4]	STX1a phosphorylation vs. control = 1, stimulus alone ([3]; NMDA 100 µM + glycine 1 µM 10 min alone (Fig. 4B), n = 7)	p54-JNK phosphorylation vs. control = 1, stimulus alone ([4]; NMDA 100 µM + glycine 1 µM 10 min alone (Fig. 4A), n = 7)	NMDA-induced release of fluorescent dye FM1-43, stimulus alone [5]	SNARE complex formation vs. control = 1, stimulus alone [6]
NC(CCCP(=O)(O)O)C(=O)O [D-AP5]	unaffected	induced an increase of iei	–	–	–	–	–	–	–
[Cl-].[K+] [KCl]	–	–	unchanged	1.22 ± 0.11	not by KCl stimulus	–	–	–	–
CN[C@H](CC(=O)O)C(=O)O [NMDA, N-methyl-D-aspartate]	–	–	unchanged	1.38 ± 0.07	1.58 ± 0.12	1.51 ± 0.13	1.54 ± 0.12	68% ± 10	1.85 ± 0.06
